# Reference: ChEMBL document CHEMBL1201862, “PubChem BioAssay data set” (2004)
#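 Cultured in 96-well plates, cells were exposed to test compound for 48 hours across five concentrations. GI50 = concentration required for 50% inhibition of growth.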 Calls of active or inactive are those of the source. No stated cut-off is given here; in the data, active = GI50 up to about 1.1 µM and inactive = higher.
# Tests used:
# Assay in all cases: NCI tumour cell line growth inhibition, 48 h
# Hs-578T = system: Hs-578T
# NCI-H460 = system: NCI-H460
# HCT-15 = system: HCT-15
# SF-539 = system: SF-539
# CCRF-CEM = system: CCRF-CEM
# NCI-H23 = system: NCI-H23
# MCF7 = system: MCF7
# SK-OV-3 = system: SK-OV-3
# OVCAR-3 = system: OVCAR-3
# A549 = system: A549
# M19-MEL = system: M19-MEL
# MDA-MB-231 = system: MDA-MB-231
# U-251 = system: U-251
# OVCAR-4 = system: OVCAR-4
# NCI/ADR-RES = system: NCI/ADR-RES
# KM12 = system: KM12
# RXF 393 = system: RXF 393
# A498 = system: A498
# PC-3 = system: PC-3
# UACC-62 = system: UACC-62
compound,measurement,setting,value
CN(C)C(=S)/N=c1\ssc(=S)n1Cc1cccs1,GI50,Hs-578T,1.51 µM (inactive)
same,GI50,NCI-H460,3.73 µM (inactive)
same,GI50,HCT-15,2.84 µM
same,GI50,SF-539,2.55 µM (inactive)
same,GI50,CCRF-CEM,6.46 µM (inactive)
same,GI50,NCI-H23,3.75 µM (inactive)
same,GI50,MCF7,1.99 µM (inactive)
same,GI50,SK-OV-3,3.46 µM (inactive)
same,GI50,OVCAR-3,1.76 µM (inactive)
same,GI50,A549,5.27 µM (inactive)
same,GI50,M19-MEL,3.16 µM (inactive)
same,GI50,MDA-MB-231,4.42 µM (inactive)
same,GI50,U-251,3.76 µM (inactive)
same,GI50,OVCAR-4,14.6 µM (inactive)
same,GI50,NCI/ADR-RES,1.08 µM (active)
same,GI50,KM12,3.39 µM (inactive)
same,GI50,RXF 393,2.19 µM (inactive)
same,GI50,A498,4.13 µM (inactive)
same,GI50,PC-3,2.4 µM (inactive)
same,GI50,UACC-62,2.7 µM (inactive)
